Data published in patent publication US20150342908A1, “SECOAPORPHINE ALKALOID DERIVATIVE FOR ACTIVATING AMP-DEPENDENT PROTEIN KINASE” (ZIH YUAN TANG Biotechnology Co., Ltd, priority 2014, published 2015).

System: AMPK
Assay: AMPK phosphorylation (Thr172) western blot in C2C12 myocytes
Assay type: cell-based, mouse
Description: C2C12 skeletal myoblast cell line was purchased from the Food Industry Research and Development Institute (Hsinchu, Taiwan). The C2C12 cell line was a cell line obtained from culturing the leg skeletal muscle of adult C3H mice in a cell incubator under […], 5% CO2, and 37° C. The cells were cultured in a DMEM medium (Gibco/Invitrogen, Carlsbad, Calif.) containing 4.5 mg/mL glucose, 10% fetal bovine serum (FBS; Gibco/Invitrogen, Carlsbad, Calif.), and an antibiotic solution (with final concentrations of penicillin=100 IU/mL and streptomycin=100 μg/mL). When the C2C12 myoblast cells have proliferated to cover seven-tenths of the area in the petri dish, the fetal bovine serum was replaced by 2% horse serum (Gibco/Invitrogen, Carlsbad, Calif.) so as to induce the C2C12 myoblast cells to become the multi-nuclei myocytes. The C2C12 myoblast cells differentiated into myocytes in 4 days, and the culture medium of the cells was replaced with no-serum DMEM 24 hours before the experiments so as to reduce metabolism of the cells. The C2C12 myocytes were treated respectively with 1 μM, 3 μM and 10 μM N-allylsecoboldine for 5 and 15 minutes. Then the C2C12 myocytes were rinsed with PBS buffer solution, and RIPA buffer solution containing protease inhibitors (20 mM Tris-HCl (pH 7.4), 100 mM NaCl, 1 mM EDTA, 1 mM EGTA, 0.1% SDS, 0.5% sodium deoxycholate, 1% NP-40, and 100× protease inhibitor cocktail) was added into the cells. The cells were collected and centrifuged on ice. Then, the concentrations of the supernatant samples were adjusted to be the same. The supernatant samples were put through vertical electrophoresis isolation with 8% SDS-PAGE, and the isolated proteins were transferred onto a PVDF blotting membrane. After blotting was completed, the PVDF blotting membrane was removed and blocked for 1 hour under room temperature with a blocking buffer of TBST (Tris-buffered saline with Tween-20) with 5% non-fat milk. Then, the PVDF blotting membrane was placed into a 5% BSA and TBST solution containing the primary monoclonal antibodies Phospho-AMPKα (Thr172) (Cell Signaling) (1:1000) and AMPKα (Thr172) (Cell Signaling) (1:1000), respectively, and the primary immunoblotting reaction was performed under 4° C. Then, the PVDF blotting membrane was rinsed 3 times with TBST, and a TBST solution containing the secondary antibody goat anti-rabbit IgG (Perkin Elmer) (1:10000) was added to perform the secondary reaction for one hour under room temperature. Finally, the membrane was rinsed 3 times with TBST before ECL (enhanced chemiluminescence) was added to present color.

## C=CCN(C)CCc1cc(O)c(OC)c2c1ccc1cc(O)c(OC)cc12 [N-allylsecoboldine]
3 μM, 5 minutes
  AMPK phosphorylation, times of that in the control cells: 2.34 times
3 μM, 15 minutes
  AMPK phosphorylation, times of that in the control cells: 1.38 times
10 μM, 5 minutes
  AMPK phosphorylation, times of that in the control cells: 2.51 times
10 μM, 15 minutes
  AMPK phosphorylation, times of that in the control cells: 2.79 times
C2C12 cells, overall conclusion
  effect in AMPK activation (in words): excellent effect in AMPK activation
